Values quoted from earlier work in patent US6579860B1, “Interleukin-6 production inhibitors” (Toray Industries, Inc., priority 1998, dated 2003).

Test system: mouse macrophage cells
Settings: Pannanen N. et al., Pharmaceutical Research 12(6)

Structure (SMILES)	effect on cytokine production/release
CC(O)(P(=O)(O)O)P(=O)(O)O [etidronate]	does not have such an effect
NCCC(O)(P(=O)(O)O)P(=O)(O)O [pamidronate]	enhances release of cytokine
O=P(O)(O)C(Cl)(Cl)P(=O)(O)O [clodronate]	suppresses cytokine production
